How the values were obtained:
native geph = experiment: µSPOT peptide microarray binding assay with native geph from mouse brain lysate
FL-geph = experiment: µSPOT peptide microarray binding assay with full-length geph
gephE = experiment: µSPOT peptide microarray binding assay with recombinant gephE
[1] = µSPOT peptide microarray, GlyRβ full positional scan, native geph from mouse brain lysate, intensity normalised to wild-type sequence DLRSNDFSIVGSLPR (=1)
[2] = µSPOT peptide microarray, GlyRβ full positional scan, intensity normalised to wild-type sequence DLRSNDFSIVGSLPR (=1)
[3] = µSPOT peptide microarray, GlyRβ full positional scan, recombinant gephE, intensity normalised to wild-type sequence DLRSNDFSIVGSLPR (=1)
[4] = µSPOT full positional scan of GlyRβ 15-mer DLRSNDFSIVGSLPR, native geph, intensity normalised to wild-type sequence (= 1)
[5] = µSPOT full positional scan of GlyRβ 15-mer DLRSNDFSIVGSLPR, intensity normalised to wild-type sequence (= 1)

Sequence | Native geph Binding Intensity [norm.] (native geph; [1]) | Fl-geph Binding Intensity [norm.] (FL-geph; [2]) | gephE Binding Intensity [norm.] (gephE; [3]) | Native geph Binding Intensity [norm.] (native geph; [4]) | Fl-geph Binding Intensity [norm.] (FL-geph; [5]) | gephE Binding Intensity [norm.] (gephE; [5])
DLRSNDKSIVGSLPR [GlyRβ_Full_Positional_Scan_134, GlyR β 414-428 variant F420K] | 0.3 norm. | 0.61 norm. | 0.53 norm. | – | – | –
DLRSNDFSIEGSLPR [GlyRβ_Full_Positional_Scan_191, GlyR β 414-428 variant V423E] | 0.53 norm. | 0.69 norm. | 0.58 norm. | – | – | –
DLRSPDFSIVGSLPR [GlyRβ_Full_Positional_Scan_085] | 0.86 norm. | 0.85 norm. | 0.95 norm. | – | – | –
DLRSNDFSAVGSLPR [GlyRβ_Full_Positional_Scan_161, GlyR β 414-428 variant I422A] | 0.52 norm. | 0.81 norm. | 0.56 norm. | – | – | –
RLRSNDFSIVGSLPR [GlyRβ_Full_Positional_Scan_012] | 0.46 norm. | 0.99 norm. | 0.98 norm. | – | – | –
DLRSNRFSIVGSLPR [GlyRβ_Full_Positional_Scan_112] | 0.36 norm. | 0.86 norm. | 0.84 norm. | – | – | –
DHRSNDFSIVGSLPR [GlyRβ_Full_Positional_Scan_033] | 0.98 norm. | 0.95 norm. | 0.91 norm. | – | – | –
DLRSNIFSIVGSLPR [GlyRβ_Full_Positional_Scan_103] | 0.35 norm. | 0.97 norm. | 0.79 norm. | – | – | –
DLRSFDFSIVGSLPR [GlyRβ_Full_Positional_Scan_087] | 0.55 norm. | 0.75 norm. | 0.9 norm. | – | – | –
DLRWNDFSIVGSLPR [GlyRβ_Full_Positional_Scan_068] | 0.95 norm. | 0.81 norm. | 0.92 norm. | – | – | –
DLRSNDFSRVGSLPR [GlyRβ_Full_Positional_Scan_172, GlyR β 414-428 variant I422R] | 0.16 norm. | 0.62 norm. | 0.57 norm. | – | – | –
DLRSNDFFIVGSLPR [GlyRβ_Full_Positional_Scan_147, GlyR β 414-428 variant S421F] | 0.18 norm. | 0.64 norm. | 0.53 norm. | – | – | –
TLRSNDFSIVGSLPR [GlyRβ_Full_Positional_Scan_016] | 0.79 norm. | 0.85 norm. | 1.16 norm. | – | – | –
DLRSCDFSIVGSLPR [GlyRβ_Full_Positional_Scan_097] | 0.83 norm. | 0.76 norm. | 0.99 norm. | – | – | –
DLESNDFSIVGSLPR [GlyRβ_Full_Positional_Scan_051] | 1.3 norm. | 1.39 norm. | 1.03 norm. | – | – | –
DLRSNDFSIVLSLPR [GlyRβ_Full_Positional_Scan_204, GlyR β 414-428 variant G424L] | 0.23 norm. | 0.53 norm. | 0.57 norm. | – | – | –
DLRSNDNSIVGSLPR [GlyRβ_Full_Positional_Scan_139, GlyR β 414-428 variant F420N] | 0.4 norm. | 0.63 norm. | 0.52 norm. | – | – | –
DLRTNDFSIVGSLPR [GlyRβ_Full_Positional_Scan_076] | 1.12 norm. | 1.09 norm. | 0.93 norm. | – | – | –
DLRSNDFMIVGSLPR [GlyRβ_Full_Positional_Scan_158, GlyR β 414-428 variant S421M] | 0.54 norm. | 0.88 norm. | 0.73 norm. | – | – | –
DLRSADFSIVGSLPR [GlyRβ_Full_Positional_Scan_081] | 0.76 norm. | 0.9 norm. | 0.93 norm. | – | – | –
DLRSNDFSILGSLPR [GlyRβ_Full_Positional_Scan_184, GlyR β 414-428 variant V423L] | 0.23 norm. | 0.66 norm. | 0.39 norm. | – | – | –
DLRSNAFSIVGSLPR [GlyRβ_Full_Positional_Scan_101] | 0.77 norm. | 1.04 norm. | 0.98 norm. | – | – | –
DLRSNDFSIVNSLPR [GlyRβ_Full_Positional_Scan_219, GlyR β 414-428 variant G424N] | – | – | – | 0.17 norm. | 0.41 norm. | 0.38 norm.

Now from value to sequence:

Native geph Binding Intensity [norm.] (native geph; [1]) | Fl-geph Binding Intensity [norm.] (FL-geph; [2]) | gephE Binding Intensity [norm.] (gephE; [3]) | Native geph Binding Intensity [norm.] (native geph; [4]) | Fl-geph Binding Intensity [norm.] (FL-geph; [5]) | gephE Binding Intensity [norm.] (gephE; [5]) | Sequence
– | – | – | 0.99 norm. | 1.04 norm. | 0.77 norm. | DLRSNDFSIVGALPR [GlyRβ_Full_Positional_Scan_221]
– | – | – | 0.48 norm. | 0.83 norm. | 0.63 norm. | DLRSNDFSIVGCLPR [GlyRβ_Full_Positional_Scan_237]
– | – | – | 0.84 norm. | 0.92 norm. | 0.88 norm. | DLRSNDFSIVGSLPG [GlyRβ_Full_Positional_Scan_282]
– | – | – | 0.44 norm. | 0.77 norm. | 0.6 norm. | DLRSNDFSIVGSLMR [GlyRβ_Full_Positional_Scan_278]
– | – | – | 0.82 norm. | 1.06 norm. | 0.92 norm. | DLRSNDFSIVGSVPR [GlyRβ_Full_Positional_Scan_246]
– | – | – | 1 norm. | 1.07 norm. | 0.9 norm. | DLRSNDFSIVGSAPR [GlyRβ_Full_Positional_Scan_241]
– | – | – | 0.97 norm. | 1.03 norm. | 0.9 norm. | DLRSNDFSIVGSNPR [GlyRβ_Full_Positional_Scan_259]
– | – | – | 0.61 norm. | 1.05 norm. | 0.72 norm. | DLRSNDFSIVGSDPR [GlyRβ_Full_Positional_Scan_250]
– | – | – | 0.28 norm. | 0.78 norm. | 0.71 norm. | DLRSNDFSIVGSLFR [GlyRβ_Full_Positional_Scan_267]
– | – | – | 0.89 norm. | 1.14 norm. | 0.86 norm. | DLRSNDFSIVGSTPR [GlyRβ_Full_Positional_Scan_256]

Source: paper PMC7753147, “High-throughput determination of protein affinities using unmodified peptide libraries in nanomolar scale” (iScience, 2020)
